≈ marks a conversion by molar mass, not a printed value. Where “and” joins values, the source holds several entries; their conditions need not be identical. Equal values may be shown once. Read-outs that look alike come from different tables or passages of the source.
Key:
[1] = system: Alternaria solani (A. solani); test: In vitro fungicidal activity, mycelial (hyphae) growth inhibition on PDA; type: cell-based; settings: Alternaria solani
[2] = Solubility of saturated solutions by HPLC at 25 °C; type: physicochemical; settings: water, thermodynamic from solid, read-out: water solubility
From the text: The filtrate was then passed through a 0.22 μm nylon membrane filter and subjected to HPLC analysis. Based on Wang’s report about the chromatographic parameters, modifications to the mobile phase ratio were made. The replicability of the results was ensured by performing each measurement in triplicate.

[3] = system: Botrytis cinerea (B. cinerea); test: In vitro fungicidal activity, mycelial (hyphae) growth inhibition on PDA; type: cell-based; settings: Botrytis cinerea
[4] = Surface tension of saturated aqueous solutions, Du Noüy ring method; settings: 25 °C
Experimental: This method involved adjusting the stage positioning of the solvent container such that a platinum ring could be immersed below the liquid interface or pulled through the meniscus. […] The maximum force was recorded as the surface tension of the solvent. To ensure accuracy, the platinum ring was thoroughly cleaned between each measurement through rinsing with double-distilled water and wiping it dry. The surface tension determination was performed in quadruplicate.

[5] = system: Pyricularia oryzae (P. oryzae); test: microbe, parasite or virus in culture; type: cell-based; settings: Pyricularia oryzae; for EC50: P. oryzae
[6] = system: Rhizoctonia solani (R. solani); test: microbe, parasite or virus in culture; type: cell-based; settings: Rhizoctonia solani
[7] = system: Fusarium graminearum (F. graminearum); test: microbe, parasite or virus in culture; type: cell-based; settings: Fusarium graminearum; for EC50: F. graminearum
[8] = system: Pythium aphanidermatum (P. aphanidermatum); test: In vitro fungicidal activity, mycelial (hyphae) growth inhibition on PDA; type: cell-based; settings: Pythium aphanidermatum; 50 mg/L; mean ± SD of three replicates; read-out: Inhibition Rate at 50 mg/L (%) P. a
[9] = Solubility classification in representative solvents (Vogel protocol); type: physicochemical; settings: thermodynamic from solid, 25 °C
Experimental: This investigation details how to determine the solubility of terbinafine and its salts, guided by the experimental protocol in Vogel’s Textbook of Practical Organic Chemistry. Based on the Snyder polarity index values of the representative solvents, each solvent was tested for its ability to dissolve the target analytes. The solubility data was classified into three categories based on the observed extent of dissolution. […] The experimental procedures were performed at 25 °C and under ambient pressure.

[10] = system: B. cinerea on cherry tomatoes; test: In vivo antifungal bioassay on cherry tomatoes; set-up: species or system Botrytis cinerea; settings: 20 mg/L; for Diameter of infection (cm) 4 days: 4 days after treatment; for Diameter of infection (cm) 7 days: 7 days after treatment
[11] = system: Phomopsis capsici (P. capsica); test: In vitro fungicidal activity, mycelial (hyphae) growth inhibition on PDA; type: cell-based; settings: Diaporthe capsici; 50 mg/L; mean ± SD of three replicates; read-out: Inhibition Rate at 50 mg/L (%) P. c
Valsa malicola (V. mali) = test: as above; type: cell-based

For CN(C/C=C/C#CC(C)(C)C)Cc1cccc2ccccc12 [Terbinafine], the inhibition at 50 µg/mL ([1]; 50 mg/L, mean ± SD of three replicates, read-out: Inhibition Rate at 50 mg/L (%) A. s) was 100%, the EC50 ([1]; A. solani, read-out: EC50 (mg/L)) was 0.07 mg/L and the EC50 ([1]; A. solani, read-out: EC50 (μmol/L)) was 0.25 µmol/L. The solubility at 15 min [2] was 5.22 µM (≈ 1.52 µg/mL), the inhibition at 50 µg/mL ([3]; 50 mg/L, mean ± SD of three replicates, read-out: Inhibition Rate at 50 mg/L (%) B. c) was 100% and the EC50 ([3]; B. cinerea, read-out: EC50 (mg/L)) was 0.1 mg/L. The EC50 ([3]; B. cinerea, read-out: EC50 (μmol/L)) was 0.34 µmol/L, the “surface tension of the saturated aqueous solution” value [4] was 59.92 mN·m^−1 and the EC50 [5] was 0.28 µg/mL and 950 nM. For the same compound, the inhibition at 50 µg/mL ([5]; read-out: Inhibition Rate at 50 mg/L (%) P. o, 50 mg/L, mean ± SD of three replicates) was 99.64 ± 0.36%, the EC50 [6] was 1.73 µg/mL and 5.94 µM and the inhibition at 50 µg/mL ([6]; 50 mg/L, read-out: Inhibition Rate at 50 mg/L (%) R. s) was 84.21 ± 0.53%. The EC50 [7] was 0.07 µg/mL and 250 nM, the inhibition at 50 µg/mL ([7]; read-out: Inhibition Rate at 50 mg/L (%) F. g) was 100% and the inhibition at 50 µg/mL [8] was 68.2 ± 1.87%. For the same compound, the solubility ([9]; DMSO, organic solvent or mixture, test amount 0.1 g, Snyder polarity index 6.5, read-out: Solubility in DMSO) was greater than 100 mg/mL, the solubility ([9]; acetone, organic solvent or mixture, test amount 0.1 g, Snyder polarity index 5.1, read-out: Solubility in Acetone) was greater than 100 mg/mL and the solubility ([9]; acetonitrile, organic solvent or mixture, test amount 0.1 g, Snyder polarity index 6.2, read-out: Solubility in Acetonitrile) was greater than 100 mg/mL. For the same compound, the solubility ([9]; chloroform, organic solvent or mixture, test amount 0.1 g, Snyder polarity index 4.1, read-out: Solubility in Chloroform) was greater than 100 mg/mL, the solubility ([9]; ethyl acetate, organic solvent or mixture, test amount 0.1 g, Snyder polarity index 4.3, read-out: Solubility in Ethyl acetate) was greater than 100 mg/mL and the solubility ([9]; isopropanol, organic solvent or mixture, test amount 0.1 g, read-out: Solubility in Isopropanol) was greater than 100 mg/mL. It also gave a solubility ([9]; methanol, organic solvent or mixture, test amount 0.1 g, Snyder polarity index 6.6, read-out: Solubility in Methanol) greater than 100 mg/mL, a solubility ([9]; n-hexane, organic solvent or mixture, test amount 0.1 g, Snyder polarity index 0.0, read-out: Solubility in n-Hexane) greater than 100 mg/mL and a solubility ([9]; toluene, organic solvent or mixture, test amount 0.1 g, Snyder polarity index 2.3, read-out: Solubility in Toluene) greater than 100 mg/mL. The solubility ([9]; various polar solvents, organic solvent or mixture, read-out: solubility in various polar solvents) was 100 mg/mL (≈ 343 mM), the solubility ([9]; water, test amount 0.1 g, Snyder polarity index 9.0, read-out: Solubility in Water) was less than 33.3 mg/mL and the “Diameter of infection (cm) 4 days” value [10] was 0.89 cm. For the same compound, the “Diameter of infection (cm) 7 days” value [10] was 1.07 cm, the inhibition at 50 µg/mL [11] was 48.75 ± 0.45% and the inhibition at 50 µg/mL (Valsa malicola (V. mali); Cytospora schulzeri, 50 mg/L, mean ± SD of three replicates, read-out: Inhibition Rate at 50 mg/L (%) V. m) was 100%. The EC50 (Valsa malicola (V. mali); V. mali, read-out: EC50 (mg/L)) was 1.25 mg/L and the EC50 (Valsa malicola (V. mali); V. mali, read-out: EC50 (μmol/L)) was 4.28 µmol/L.
For COC(=O)N(OC)c1ccccc1COc1ccn(-c2ccc(Cl)cc2)n1 [Pyraclostrobin, reference compound], the EC50 [1] was 0.23 µg/mL and 590 nM, the EC50 [3] was 0.12 µg/mL and 310 nM and the EC50 [5] was 0.6 µg/mL and 1.54 µM. For the same compound, the EC50 [6] was 0.07 µg/mL and 190 nM, the EC50 [7] was 1.43 µg/mL and 3.68 µM and the “Diameter of infection (cm) 4 days” value [10] was 0.71 cm. For the same compound, the “Diameter of infection (cm) 7 days” value [10] was 0.92 cm and the EC50 (Valsa malicola (V. mali)) was 0.79 µg/mL and 2.02 µM.

— PMC10303384, “The Effect of Terbinafine and Its Ionic Salts on Certain Fungal Plant Pathogens” (Molecules, 2023)
